Consider 1 molecule from US20180049996A1, “THERAPEUTIC AGENT FOR CHRONIC RESPIRATORY DISEASE AND COMPOSITION FOR INHIBITING CARDIAC FIBROSIS” (NIPPON HYPOX LABORATORIES INCORPORATED, priority 2015, published 2018).

The test system of assay [1] is Pulmonary Fibrosis Induced by Bleomycin. As to the kind of experiment: Bronchoalveolar lavage (BAL) examination, cell numbers, pulmonary fibrosis induced by bleomycin. Format: in vivo, male SD rats. Here is the method:
Bleomycin is used to produce disease-model animals of interstitial pneumonia. The bleomycin and 2,3,5-trimethylhydroquinone-1-hexyl ether (HTHQ) as the hydroquinone derivative represented by the general formula (1) described above of the present invention were simultaneously administered to male SD rats of 10 week old after birth to examine the effect of the action. The test groups consisted of the control group to which sterile saline was administered; test group 1 to which bleomycin (7.5 mg/kg body weight) alone was administered; test group 2 to which bleomycin (7.5 mg/kg body weight) and HTHQ (50 mg/kg body weight/day) were administered in combination; and test group 3 to which bleomycin (7.5 mg/kg body weight) and HTHQ (200 mg/kg body weight/day) were administered in combination.
In test groups 1 to 3, bleomycin was orally administered in a single dose. In test groups 2 and 3, 2,3,5-trimethylhydroquinone-1-hexyl ether (HTHQ) was daily orally administered for 10 or 20 days starting from 24 h after the administration of bleomycin. In test group 1, olive oil, which was used as a solvent of HTHQ, was daily orally administered at 10 mL/kg/day starting from 24 h after the administration of bleomycin. The number of animals in each group was 16. 8 animals of each group were sacrificed on days 10 and 20 after the administration of bleomycin and measurement of body weight, lung autopsy, histopathologic examination of lungs and bronchoalveolar lavage examination were conducted.
Bronchoalveolar lavage (BAL) examination was conducted on the rats in the control group and the test groups. When interstitial pneumonia developed, the infiltration of inflammatory cells occurs and thus the total cell number in BAL fluid increases. The total cell numbers on day 10 after the administration of bleomycin were as follows: 2×10^5 cells in the control group, 9×10^5 cells in test group 1 (the bleomycin-single administration group), 6.5×10^5 cells in test group 2 (the low-dose HTHQ-administered group, 50 mg/kg body weight), and 10.5×10^5 cells in test group 3 (the high-dose HTHQ-administered group, 200 mg/kg body weight), and thus the effect of HTHQ administration was not found on day 10 after the administration of bleomycin.
When interstitial pneumonia developed, the infiltration of alveolar macrophages to interstitial tissue occurs and thus the alveolar macrophage number in BAL fluid increases. The alveolar macrophage numbers on day 10 after the administration of bleomycin were as follows: 1.45×10^5 cells in the control group, 4.5×10^5 cells in test group 1 (the bleomycin-single administration group), 1.99×10^5 cells in test group 2 (the low-dose HTHQ-administered group), and 3.24×10^5 cells in test group 3 (the high-dose HTHQ-administered group), and thus the effect of HTHQ administration was not found on day 10 after the administration of bleomycin. However, on day 20 after the administration, while the alveolar macrophage number of the bleomycin-single administration group was 5.5×10^5 cells, the alveolar macrophage number of the low-dose HTHQ-administered group was 3×10^5 cells and the alveolar macrophage number of the high-dose HTHQ-administered group was decreased to 2×10^5 cells.
When interstitial pneumonia developed, the infiltration of inflammatory cells of neutrophils to interstitial tissue occurs and thus the neutrophil number in BAL fluid increases. The neutrophil numbers on day 10 after the administration of bleomycin were as follows: 1.04×10^4 cells in the control group, 2.28×10^5 cells in test group 1 (the bleomycin-single administration group), 1.44×10^5 cells in test group 2 (the low-dose HTHQ-administered group), and 5.83×10^5 cells in test group 3 (the high-dose HTHQ-administered group), and thus the effect of HTHQ was not found on day 10 after the administration of bleomycin. […]

Another assay has as its system IL-6. As to the kind of experiment: IL-6 level in BAL fluid (ELISA), COPD model. Format: in vivo, C57BL/6N mice. The conditions noted are these: HTHQ 10 and 20 mg/kg/day oral; tobacco smoke 10 days + LPS; compared to COPD model group. Here is the method: 6 week old male SPF C57BL/6N mice, 20 to 25 g of body weight, were purchased from CORETEC INC. (South Korea).
The tests were conducted as follows. The mice in the COPD (chronic obstructive pulmonary disease) model group of the test groups were exposed to tobacco smoke for 1 hour per day (8 cigarettes/day) for 10 days and LPS (5 μg/50 μL/mouse) was intranasally administered to the mice on day 8 after the start of the tests. […]
The mice in the test groups were euthanized 72 hours after the LPS administration and the mice in the normal control group were euthanized on day 11 after the start of the tests by intraperitoneal injection of pentobarbital (Hanrimu pharmaceutical, South Korea) at 50 mg/kg and then the bronchi were excised. […] After preparing slide samples from 100 μL of BAL cell fluid using Cytospin (4° C., 1000 rpm×5 min), the cell numbers of inflammatory cells (neutrophil, macrophages) present in the BAL fluid were counted using a Diff-Quik stain kit.
The supernatant of the BAL fluid stored was taken out of the super-cryostat, and TNF-α and IL-6 levels were measured as the levels of pro-inflammatory cytokines in the supernatant. A quantitative ELISA kit (a product from Invitrogen) and an ELISA analyzer (a product from Molecular Devices, LLC.) were used for the measurement and the measurement wavelength was 450 nm.
(In an ELISA, binding on a coated surface is turned into a signal by an enzyme label.)

Setting [2] is: Test group 2: bleomycin + HTHQ 50 mg/kg/day oral, day 10.
Setting [3] is: Test group 3: bleomycin + HTHQ 200 mg/kg/day oral, day 10.
Where [4] appears, read: bleomycin + HTHQ 50 mg/kg/day oral (low-dose), day 20.
Setting [5] is: bleomycin + HTHQ 200 mg/kg/day oral (high-dose), day 20.

For the molecule `CCCCCCOc1cc(C)c(O)c(C)c1C` [HTHQ, 2,3,5-trimethylhydroquinone-1-hexyl ether], in assay [1] (setting [2]), the “alveolar macrophage number in BAL fluid” value is 1.99×10^5 cells, the “lymphocyte number in BAL fluid” value is listed as 3.07×10^5 cells, the “neutrophil number in BAL fluid” value was 1.44×10^5 cells and the “total cell number in BAL fluid” value is listed as 6.5×10^5 cells. In assay [1] (setting [3]), the “alveolar macrophage number in BAL fluid” value is listed as 3.24×10^5 cells, the “lymphocyte number in BAL fluid” value is on record as 1.43×10^5 cells, the “neutrophil number in BAL fluid” value is on record as 5.83×10^5 cells and the “total cell number in BAL fluid” value is on record as 10.5×10^5 cells. Moreover, in assay [1] (setting [4]), the “alveolar macrophage number in BAL fluid” value is recorded as 3×10^5 cells, the “lymphocyte number in BAL fluid” value is listed as 0.53×10^5 cells, the “neutrophil number in BAL fluid” value is listed as 4.34×10^5 cells and the “total cell number in BAL fluid” value is recorded as 7.9×10^5 cells. In addition, in assay [1] (setting [5]), the “alveolar macrophage number in BAL fluid” value is reported as 2×10^5 cells, the “lymphocyte number in BAL fluid” value is recorded as 0.3×10^5 cells, the “neutrophil number in BAL fluid” value was 1.49×10^5 cells and the “total cell number in BAL fluid” value is on record as 3.8×10^5 cells. The “IL-6 level in BAL fluid” value in the assay with IL-6 is listed as “significantly reduced”.
